# Measured values as given in US20250059175A1, “Mutant Pi3k-Alpha Inhibitors And Their Use As Pharmaceuticals” (Prelude Therapeutics Incorporated, priority 2023, published 2025).
# Tests used:
# [1] = system: phosphorylation of AKT on Ser473 (PI3K pathway) in T-47D (heterozygous PIK3CA H1047R) cell line; test: PI3K pathway activation assay (pAKT Ser473 HTRF), T-47D cells; assay type: cell-based; conditions: Homo sapiens, T47D, 2 h; T-47D (heterozygous PIK3CA H1047R) cells, two hours of treatment, pAKT Ser473 HTRF; read-out: T47D pAKT IC50
# [2] = system: phosphorylation of AKT on Ser473 (PI3K pathway) in SKBR3 (PIK3CA WT) cell line; test: PI3K pathway activation assay (pAKT Ser473 HTRF), SKBR3 cells; assay type: cell-based; conditions: Homo sapiens, SK-BR-3, 2 h, two hours of treatment
# Procedure: The inhibitory activity of the compounds of the disclosure was evaluated by measuring phosphorylation of AKT on Ser473 as a readout of the PI3K pathway using HTRF (CisBio catalog number: 64AKSPE). These studies were conducted in the T-47D (heterozygous PIK3CA H1047R) and SKBR3 (PIK3CA WT) cell lines. Cells were maintained in a 37° C. incubator at 5% CO2 in the following media: T-47D: RPMI 1640, ATCC© Modification (Gibco, A10491-01) supplemented with 10% v/v FBS (Gibco, 26140-079), 1% penicillin streptomycin (Gibco, 15140-122), and 7.4 ug/mL insulin (MilliporeSigma, I9278); SKBR3: McCoy's 5a (Modified) Medium (Gibco, 16600-082) supplemented with 10% v/v FBS (Gibco, 26140-079). Cells were seeded in 384-well plates at a density of 4,000 cells/well. Compounds dissolved in DMSO were added using a digital dispense (D300E, Tecan) 10-point serial dilution. After two hours of treatment, cells were lysed for thirty minutes and then incubated with detection reagents per HTRF kit material and manufacturer's instructions. Fluorescence signal was measured with a multimode plate reader (Envision 2105, Perkin Elmer). Fluorescent signal was normalized to background and DMSO controls to obtain percent inhibition/activity for each compound.
IC50 [1],IC50 [2],Structure (SMILES)
< 100 nM,> 10000 nM,"Cc1cc([C@@H](C)Nc2ccc(Cl)nc2C(=O)O)nc(N2C(=O)OC[C@@H]2Cc2ccc(F)cc2)c1 [Example 24, 6-Chloro-3-(((R)-1-(6-((S)-4-(4-fluorobenzyl)-2-oxooxazolidin-3-yl)-4-methylpyridin-2-yl)ethyl)amino)picolinic acid]"
< 100 nM,> 10000 nM,"COc1ccc(C[C@H]2COC(=O)N2c2cc(C)cc([C@@H](C)Nc3ccc(Cl)nc3C(=O)O)n2)c(F)c1 [Example 27, 6-Chloro-3-(((R)-1-(6-((S)-4-(2-fluoro-4-methoxybenzyl)-2-oxooxazolidin-3-yl)-4-methylpyridin-2-yl)ethyl)amino)picolinic acid]"
< 100 nM,> 10000 nM,"COc1cc(C[C@H]2COC(=O)N2c2cc(C)cc([C@@H](C)Nc3ccc(Cl)nc3C(=O)O)n2)c(F)cn1 [Example 29, 6-Chloro-3-(((R)-1-(6-((S)-4-((5-fluoro-2-methoxypyridin-4-yl)methyl)-2-oxooxazolidin-3-yl)-4-methylpyridin-2-yl)ethyl)amino)picolinic acid]"
< 100 nM,> 10000 nM,"Cc1cc([C@@H](C)Nc2ccc(Cl)nc2C(=O)O)nc(N2C(=O)N(C)C[C@@H]2Cc2ccc(F)cc2)c1 [Example 58, 6-Chloro-3-(((R)-1-(6-((S)-5-(4-fluorobenzyl)-3-methyl-2-oxoimidazolidin-1-yl)-4-methylpyridin-2-yl)ethyl)amino)picolinic acid]"
100 to 1000 nM,> 10000 nM,"Cc1cc([C@@H](C)Nc2ccc(Cl)nc2C(=O)O)nc(N2C(=O)N(C)C[C@@H]2Cc2ccc(F)cc2F)c1 [Example 59, 6-Chloro-3-(((R)-1-(6-((S)-5-(2,4-difluorobenzyl)-3-methyl-2-oxoimidazolidin-1-yl)-4-methylpyridin-2-yl)ethyl)amino)picolinic acid]"
< 100 nM,1000 to 10000 nM,"C[C@@H](Nc1ccc(Cl)nc1C(=O)O)c1cc(F)cc(N2C(=O)OC[C@@H]2Cc2ccccc2F)c1 [Example 61, 6-Chloro-3-(((R)-1-(3-fluoro-5-((S)-4-(2-fluorobenzyl)-2-oxooxazolidin-3-yl)phenyl)ethyl)amino)picolinic acid]"

# Continued, molecule first:
Structure (SMILES),IC50 [1],IC50 [2]
"Cc1cc([C@@H](C)Nc2ccc(Cl)nc2C(=O)O)nc(N2C(=O)OC[C@@H]2Cc2cccc(C)c2F)c1 [Example 20, 6-Chloro-3-(((R)-1-(6-((S)-4-(2-fluoro-3-methylbenzyl)-2-oxooxazolidin-3-yl)-4-methylpyridin-2-yl)ethyl)amino)picolinic acid]",< 100 nM,> 10000 nM
"Cc1cc([C@@H](C)Nc2ccc(Cl)nc2C(=O)O)nc(N2C(=O)OC[C@@H]2Cc2ccncc2F)c1 [Example 21, 6-Chloro-3-(((R)-1-(6-((S)-4-((3-fluoropyridin-4-yl)methyl)-2-oxooxazolidin-3-yl)-4-methylpyridin-2-yl)ethyl)amino)picolinic acid]",< 100 nM,1000 to 10000 nM
"Cc1cc([C@@H](C)Nc2ccc(Cl)nc2C(=O)O)nc(N2C(=O)OC[C@@H]2Cc2ccc(C(F)(F)F)cc2)c1 [Example 23, 6-Chloro-3-(((R)-1-(4-methyl-6-((S)-2-oxo-4-(4-(trifluoromethyl)benzyl)oxazolidin-3-yl)pyridin-2-yl)ethyl)amino)picolinic acid]",< 100 nM,> 10000 nM
"Cc1cc([C@@H](C)Nc2ccc(Cl)nc2C(=O)O)nc(N2C(=O)OC[C@@H]2Cc2ccc(F)cc2F)c1 [Example 26, 6-Chloro-3-(((R)-1-(6-((S)-4-(2,4-difluorobenzyl)-2-oxooxazolidin-3-yl)-4-methylpyridin-2-yl)ethyl)amino)picolinic acid]",< 100 nM,> 10000 nM
"Cc1cc([C@@H](C)Nc2ccc(Cl)nc2C(=O)O)nc(N2C(=O)OC[C@@H]2Cc2cccc(C#N)c2)c1 [Example 48, 6-Chloro-3-(((R)-1-(6-((S)-4-(3-cyanobenzyl)-2-oxooxazolidin-3-yl)-4-methylpyridin-2-yl)ethyl)amino)picolinic acid]",< 100 nM,> 10000 nM
"Cc1cc([C@@H](C)Nc2ccc(Cl)nc2C(=O)O)nc(N2C(=O)OC[C@@H]2Cc2ccc(C#N)cc2F)c1 [Example 49, 6-Chloro-3-(((R)-1-(6-((S)-4-(4-cyano-2-fluorobenzyl)-2-oxooxazolidin-3-yl)-4-methylpyridin-2-yl)ethyl)amino)picolinic acid]",< 100 nM,> 10000 nM
"Cc1cc([C@@H](C)Nc2ccc(Cl)nc2C(=O)O)nc(N2C(=O)N(C)C[C@@H]2Cc2ccccc2)c1 [Example 60, 3-(((R)-1-(6-((S)-5-Benzyl-3-methyl-2-oxoimidazolidin-1-yl)-4-methylpyridin-2-yl)ethyl)amino)-6-chloropicolinic acid]",< 100 nM,1000 to 10000 nM
